US11649255B2, “Indazoles as hematopoietic progenitor kinase 1 (HPK1) inhibitors and methods using same” (1st Biotherapeutics, Inc., priority 2020, dated 2023)

The molecules below were run against recombinant human HPK1 (Homo sapiens (Human), UniProt Q92918) (assay: HPK1 kinase assay (ADP-Glo)). Conditions: 25 μM ATP, MBP substrate.
Chain of recombinant human HPK1 (Q92918 whole entry): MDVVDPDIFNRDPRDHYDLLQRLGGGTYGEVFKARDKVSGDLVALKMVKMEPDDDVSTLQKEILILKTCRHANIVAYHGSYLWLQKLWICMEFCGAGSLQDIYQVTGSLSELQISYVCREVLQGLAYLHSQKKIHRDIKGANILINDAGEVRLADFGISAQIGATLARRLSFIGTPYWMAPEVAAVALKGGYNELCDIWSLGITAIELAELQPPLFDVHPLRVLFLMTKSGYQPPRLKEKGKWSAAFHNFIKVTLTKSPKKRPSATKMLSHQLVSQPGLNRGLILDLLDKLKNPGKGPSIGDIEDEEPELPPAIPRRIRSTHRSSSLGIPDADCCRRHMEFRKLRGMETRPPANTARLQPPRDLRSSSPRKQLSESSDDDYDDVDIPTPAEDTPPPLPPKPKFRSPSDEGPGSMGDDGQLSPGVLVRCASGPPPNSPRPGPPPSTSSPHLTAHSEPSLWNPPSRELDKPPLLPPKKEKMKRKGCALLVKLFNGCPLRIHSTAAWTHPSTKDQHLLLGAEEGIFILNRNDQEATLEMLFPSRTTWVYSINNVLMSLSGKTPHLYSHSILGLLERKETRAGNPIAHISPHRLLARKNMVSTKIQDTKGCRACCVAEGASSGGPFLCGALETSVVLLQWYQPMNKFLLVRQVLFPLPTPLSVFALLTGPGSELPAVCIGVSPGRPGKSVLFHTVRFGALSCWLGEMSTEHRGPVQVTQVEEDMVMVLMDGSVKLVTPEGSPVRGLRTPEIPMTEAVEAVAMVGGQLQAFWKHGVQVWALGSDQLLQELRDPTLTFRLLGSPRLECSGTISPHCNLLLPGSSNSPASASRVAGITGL
Format: biochemical
Procedure: HPK1 kinase activity was measured by Promega's ADP-Glo™ kinase assay. In this assay, 5 ng of recombinant human HPK1 (signalchem) is incubated with 5 μL of compounds (0.5% DMSO), 5 μL of MBP (0.5 μg/μl) and 5 μL of ATP (25 μM) in buffer (40 mM Tris, 7.5; 20 mM MgCl2; 0.1 mg/ml BSA; 5 μM DTT). The assay was started by incubating the reaction mixture in a 96-well plate at 30′ C for 40 minutes. After the incubation, 25 uL ADP-Glo reagent was added and the reaction was incubated at room temperature for 40-min to stop the reaction and degrade residual ATP. The ADP product was then converted to ATP by adding 50 uL per well of detection reagent. Luminescence was detected after 30-min room temperature incubation with the Molecular device I3X plate reader. The IC50 values were calculated from a series of percent inhibition values determined at a range of inhibitor concentration using software routines as implemented in the GraphPad Prism 7 software and SigmaPlot13.0.
`C=Cc1ccc2[nH]ncc2c1-c1ccc2nc(NC(=O)[C@@H]3C[C@@H]3F)sc2c1` [Example 35, (1S,2S)-2-fluoro-N-(6-(5-vinyl-1H-indazol-4-yl)benzo[d]thiazol-2-yl)cyclopropane-1-carboxamide] showed an IC50 of 101 to 500 nM.
With `Cc1c(F)c(C(F)(F)F)c2[nH]ncc2c1-c1ccc2nc(NC(=O)[C@@H]3C[C@@H]3F)cn2c1` [Example 263, (1S,2S)-2-fluoro-N-(6-(6-fluoro-5-methyl-7-(trifluoromethyl)-1H-indazol-4-yl)imidazo[1,2-a]pyridin-2-yl)cyclopropane-1-carboxamide] the IC50 was under 100 nM.
Work on `CNC(=O)OCCSc1c(F)c(C)c(-c2ccn3nc(NC(=O)[C@@H]4C[C@@H]4F)cc3c2)c2cn[nH]c12` [Example 546, 2-((6-fluoro-4-(2-((1S,2S)-2-fluorocyclopropane-1-carboxamido)pyrazolo[1,5-a]pyridin-5-yl)-5-methyl-1H-indazol-7-yl)thio)ethyl methylcarbamate] yielded an IC50 of under 100 nM.
`C[S+]([O-])c1c(F)c(Cl)c(-c2ccc3nc(NC(=O)[C@@H]4C[C@@H]4F)cn3c2)c2cn[nH]c12` (stereo partly drawn) [Example 303, (1S,2S)-N-(6-(5-chloro-6-fluoro-7-(methylsulfinyl)-1H-indazol-4-yl)imidazo[1,2-a]pyridin-2-yl)-2-fluorocyclopropane-1-carboxamide] gave an IC50 of under 100 nM.
In the case of `Cc1c(F)c(N(C)C)c2[nH]ncc2c1-c1ccn2nc(NC(=O)[C@@H]3C[C@@H]3F)cc2c1` [Example 490, (1S,2S)-N-(5-(7-(dimethylamino)-6-fluoro-5-methyl-1H-indazol-4-yl)pyrazolo[1,5-a]pyridin-2-yl)-2-fluorocyclopropane-1-carboxamide], the IC50 is reported as under 100 nM.
In the case of `CSc1c(F)c(F)c2[nH]ncc2c1-c1ccn2nc(NC(=O)[C@H]3C[C@H]3F)cc2c1` [Example 598, (1R,2R)-N-(5-(6,7-difluoro-5-(methylthio)-1H-indazol-4-yl)pyrazolo[1,5-a]pyridin-2-yl)-2-fluorocyclopropane-1-carboxamide], the IC50 is reported as under 100 nM.
Molecule `COc1cc(C)c(-c2ccc3nc(NC(=O)[C@@H]4C[C@@H]4F)cn3c2)c2cn[nH]c12` [Example 285, (1S,2S)-2-fluoro-N-(6-(7-methoxy-5-methyl-1H-indazol-4-yl)imidazo[1,2-a]pyridin-2-yl)cyclopropane-1-carboxamide] has an IC50 of under 100 nM.
Molecule `O=C(Nc1nc2ccc(-c3c(O)ccc4[nH]ncc34)cc2s1)C1CC1` [Example 27, N-(6-(5-hydroxy-1H-indazol-4-yl)benzo[d]thiazol-2-yl)cyclopropanecarboxamide] has an IC50 of over 1000 nM.
With `NC1CCN(c2c(F)c(Cl)c(-c3ccc4nc(NC(=O)[C@@H]5C[C@@H]5F)sc4c3)c3cn[nH]c23)CC1` [Example 83, (1S,2S)-N-(6-(7-(4-aminopiperidin-1-yl)-5-chloro-6-fluoro-1H-indazol-4-yl)benzo[d]thiazol-2-yl)-2-fluorocyclopropane-1-carboxamide] the IC50 was 101 to 500 nM.
`CC(=O)N(C)c1c(F)c(C)c(-c2ccc3nc(NC(=O)[C@@H]4C[C@@H]4F)sc3c2)c2cn[nH]c12` [Example 120, (1S,2S)-2-fluoro-N-(6-(6-fluoro-5-methyl-7-(N-methylacetamido)-1H-indazol-4-yl)benzo[d]thiazol-2-yl)cyclopropane-1-carboxamide] was tested, and the IC50 was under 100 nM.
Molecule `O=C(Nc1cc2cc(-c3c(C4CC4)c(F)cc4[nH]ncc34)ccn2n1)[C@@H]1C[C@@H]1F` [Example 457, (1S,2S)-N-(5-(5-cyclopropyl-6-fluoro-1H-indazol-4-yl)pyrazolo[1,5-a]pyridin-2-yl)-2-fluorocyclopropane-1-carboxamide] has an IC50 of under 100 nM.
With `CSc1c(F)cc2[nH]ncc2c1-c1ccn2nc(NC(=O)[C@H]3C[C@@H]3F)cc2c1` [Example 571, (1R,2S)-2-fluoro-N-(5-(6-fluoro-5-(methylthio)-1H-indazol-4-yl)pyrazolo[1,5-a]pyridin-2-yl)cyclopropane-1-carboxamide] the IC50 was under 100 nM.
`CCOc1c(F)c(F)c2[nH]ncc2c1-c1ccc2nc(NC(=O)[C@@H]3C[C@@H]3F)cn2c1` [Example 357, (1S,2S)-N-(6-(5-ethoxy-6,7-difluoro-1H-indazol-4-yl)imidazo[1,2-a]pyridin-2-yl)-2-fluorocyclopropane-1-carboxamide] was tested, and the IC50 was under 100 nM.
`Cc1c(F)c(C#N)c2[nH]ncc2c1-c1ccn2nc(NC(=O)[C@@H]3C[C@@H]3F)cc2c1` [Example 582, (1S,2S)-N-(5-(7-cyano-6-fluoro-5-methyl-1H-indazol-4-yl)pyrazolo[1,5-a]pyridin-2-yl)-2-fluorocyclopropane-1-carboxamide] was tested, and the IC50 was under 100 nM.
In the case of `Cc1c(F)c(C(=O)N(C)C)c2[nH]ncc2c1-c1ccc2nc(NC(=O)[C@@H]3C[C@@H]3F)sc2n1` [Example 197, 6-fluoro-4-(2-((1S,2S)-2-fluorocyclopropane-1-carboxamido)thiazolo[5,4-b]pyridin-5-yl)-N,N,5-trimethyl-1H-indazole-7-carboxamide], the IC50 is reported as under 100 nM.
`O=C(Nc1cc2cc(-c3c(Cl)c(F)c(Nc4ccncc4)c4[nH]ncc34)ccn2n1)[C@@H]1C[C@@H]1F` [Example 609, (1S,2S)-N-(5-(5-chloro-6-fluoro-7-(pyridin-4-ylamino)-1H-indazol-4-yl)pyrazolo[1,5-a]pyridin-2-yl)-2-fluorocyclopropane-1-carboxamide] was tested, and the IC50 was under 100 nM.
`CN(C)C(=O)c1c(F)cc2[nH]ncc2c1-c1ccn2nc(NC(=O)[C@@H]3C[C@@H]3F)cc2c1` [Example 605, 6-fluoro-4-(2-((1S,2S)-2-fluorocyclopropane-1-carboxamido)pyrazolo[1,5-a]pyridin-5-yl)-N,N-dimethyl-1H-indazole-5-carboxamide] gave an IC50 of over 1000 nM.
Molecule `O=C(Nc1cn2cc(-c3c(Cl)c(F)c(N4CCOCC4)c4[nH]ncc34)ccc2n1)[C@@H]1C[C@@H]1F` [Example 279, (1S,2S)-N-(6-(5-chloro-6-fluoro-7-morpholino-1H-indazol-4-yl)imidazo[1,2-a]pyridin-2-yl)-2-fluorocyclopropane-1-carboxamide] has an IC50 of under 100 nM.
Molecule `O=C(Nc1nc2ccc(-c3c(-c4ccsc4)ccc4[nH]ncc34)cc2s1)C1CC1` [Example 18, N-(6-(5-(thiophen-3-yl)-1H-indazol-4-yl)benzo[d]thiazol-2-yl)cyclopropanecarboxamide] has an IC50 of over 1000 nM.
In the case of `O=C(Nc1nc2ccc(-c3c(Cl)c(F)c(N4CCOCC4)c4[nH]ncc34)cc2s1)[C@@H]1C[C@@H]1F` [Example 74, (1S,2S)-N-(6-(5-chloro-6-fluoro-7-morpholino-1H-indazol-4-yl)benzo[d]thiazol-2-yl)-2-fluorocyclopropane-1-carboxamide], the IC50 is reported as 101 to 500 nM.
For `Cc1ccc2[nH]ncc2c1-c1ccc2nc(NC(=O)c3ccccn3)sc2c1` [Example 12, N-(6-(5-methyl-1H-indazol-4-yl)benzo[d]thiazol-2-yl)picolinamide], the IC50 was over 1000 nM.
In the case of `CCc1c(F)c(N(C)CC)c2[nH]ncc2c1-c1ccc2nc(NC(=O)[C@@H]3C[C@@H]3F)sc2n1` [Example 200, (1S,2S)-N-(5-(5-ethyl-7-(ethyl(methyl)amino)-6-fluoro-1H-indazol-4-yl)thiazolo[5,4-b]pyridin-2-yl)-2-fluorocyclopropane-1-carboxamide], the IC50 is reported as under 100 nM.
In the case of `O=C(Nc1cn2cc(-c3c(Cl)c(F)c(N4CCCC4=O)c4[nH]ncc34)ccc2n1)[C@@H]1C[C@@H]1F` [Example 336, (1S,2S)-N-(6-(5-chloro-6-fluoro-7-(2-oxopyrrolidin-1-yl)-1H-indazol-4-yl)imidazo[1,2-a]pyridin-2-yl)-2-fluorocyclopropane-1-carboxamide], the IC50 is reported as under 100 nM.
`Cc1c(F)cc2[nH]ncc2c1-c1ccc2nc(NC(=O)C3CC3)cn2c1` [Example 245, N-(6-(6-fluoro-5-methyl-1H-indazol-4-yl)imidazo[1,2-a]pyridin-2-yl)cyclopropanecarboxamide] was tested, and the IC50 was under 100 nM.
With `CCOc1c(F)cc2[nH]ncc2c1-c1ccc2nc(NC(=O)[C@@H]3C[C@@H]3F)cn2c1` [Example 328, (1S,2S)-N-(6-(5-ethoxy-6-fluoro-1H-indazol-4-yl)imidazo[1,2-a]pyridin-2-yl)-2-fluorocyclopropane-1-carboxamide] the IC50 was under 100 nM.
Work on `O=C(Nc1cn2cc(-c3c(Cl)c(F)c(NCC4CC4)c4[nH]ncc34)ccc2n1)[C@@H]1C[C@@H]1F` [Example 421, (1S,2S)-N-(6-(5-chloro-7-((cyclopropylmethyl)amino)-6-fluoro-1H-indazol-4-yl)imidazo[1,2-a]pyridin-2-yl)-2-fluorocyclopropane-1-carboxamide] yielded an IC50 of under 100 nM.
`CC(C)(C)OC(=O)NC1CCC(Nc2c(F)c(Cl)c(-c3ccn4nc(NC(=O)[C@@H]5C[C@@H]5F)cc4c3)c3cn[nH]c23)CC1` (stereo partly drawn) [Example 516, tert-butyl (4-((5-chloro-6-fluoro-4-(2-((1S,2S)-2-fluorocyclopropane-1-carboxamido)pyrazolo[1,5-a]pyridin-5-yl)-1H-indazol-7-yl)amino)cyclohexyl)carbamate] gave an IC50 of under 100 nM.
For `Nc1c(F)cc2[nH]ncc2c1-c1ccc2nc(NC(=O)[C@@H]3C[C@@H]3F)sc2n1` [Example 151, (1S,2S)-N-(5-(5-amino-6-fluoro-1H-indazol-4-yl)thiazolo[5,4-b]pyridin-2-yl)-2-fluorocyclopropane-1-carboxamide], the IC50 was over 1000 nM.
`CC(C)c1c(F)cc2[nH]ncc2c1-c1ccn2nc(NC(=O)[C@@H]3C[C@@H]3F)cc2c1` [Example 462, (1S,2S)-2-fluoro-N-(5-(6-fluoro-5-isopropyl-1H-indazol-4-yl)pyrazolo[1,5-a]pyridin-2-yl)cyclopropane-1-carboxamide] showed an IC50 of under 100 nM.
